Laboratory results from article PMC8351955, “Targeting Mycobacterium tuberculosis response to environmental cues for the development of effective antitubercular drugs” (PLoS Biology, 2021).
Several values for one entry are separate records, joined by “and”; a condition that tells them apart may be missing. Equal values may be shown once.

How the values were obtained:
Mtb-infected J774 cells = details: 10 μM, 24 hours, 5 days post-infection
[1] = test system: macrophage phagosomal acidification in BMDMs; test: Phagosomal maturation assay, carboxyfluorescein beads (pH readout); assay type: cell-based, mouse; details: for 490 nm/450 nm, Average: average of 5 replicates
Protocol: Carboxyfluorescein (pH readout), DQ-BSA/Alexa Fluor 594 (AF594) (proteolysis readout), and BAC/AF594 (Cl^− readout) beads were generated essentially as previously described, except that 10,10′-Bis[3-carboxylpropyl]-9,9′-biacridinium dinitrate di-NHS ester (BAC-SE) was purchased from emp Biotech LLC. BMDMs were isolated from C57BL/6J mice (The Jackson Laboratory) and maintained as described above. A quantity of 2 × 10^5 macrophages/well were seeded into 96-well clear bottom black plates and utilized in assays 1 to 2 days post-seeding. […] Assay buffer consisted of PBS (pH 7.2), supplemented with 5% FBS, 5 mM dextrose, 1 mM CaCl2, 2.7 mM KCl, and 0.5 mM MgCl2 in the case of assays with the carboxyfluorescein or DQ-BSA/AF594 beads. For assays with the BAC/AF594 beads, assay buffer consisted of PBS (pH 7.2), supplemented with 5% FBS, 5 mM dextrose, 1 mM calcium acetate, 1.35 mM K2SO4, and 0.5 mM MgSO4 [9]. Sensor beads at approximately 2 to 5 beads/macrophage in appropriate assay buffer were finally added, with data acquisition on a Biotek Synergy H1 microplate reader with bottom read signal detection started within 2 to 3 minutes of bead addition. Excitation/emission wavelengths were 450 nm/520 nm and 490 nm/520 nm for carboxyfluorescein, 490 nm/520 nm for DQ-BSA, 365 nm/505 nm for BAC, and 590 nm/617 nm for AF594. Each experiment was run with a total of 3 to 5 replicate wells/condition, with temperature maintained at 37°C throughout the assay. Wells were read every 2 minutes for 2 hours for the carboxyfluorescein bead assays, every 2 minoutes for 4 hours for the DQ-BSA/AF594 bead assays, and every 1 minute for 2 hours for the BAC/AF594 bead assays. Analyses of the results were performed as previously described.

CYP2C19 = CYP2C19 (Homo sapiens, UniProt P33261); test: Human cytochrome P450 inhibition, 2C19; assay type: in vitro ADME; details: read-out: % inhibition of CYP 2C19
Chain of CYP2C19 (P33261 whole entry): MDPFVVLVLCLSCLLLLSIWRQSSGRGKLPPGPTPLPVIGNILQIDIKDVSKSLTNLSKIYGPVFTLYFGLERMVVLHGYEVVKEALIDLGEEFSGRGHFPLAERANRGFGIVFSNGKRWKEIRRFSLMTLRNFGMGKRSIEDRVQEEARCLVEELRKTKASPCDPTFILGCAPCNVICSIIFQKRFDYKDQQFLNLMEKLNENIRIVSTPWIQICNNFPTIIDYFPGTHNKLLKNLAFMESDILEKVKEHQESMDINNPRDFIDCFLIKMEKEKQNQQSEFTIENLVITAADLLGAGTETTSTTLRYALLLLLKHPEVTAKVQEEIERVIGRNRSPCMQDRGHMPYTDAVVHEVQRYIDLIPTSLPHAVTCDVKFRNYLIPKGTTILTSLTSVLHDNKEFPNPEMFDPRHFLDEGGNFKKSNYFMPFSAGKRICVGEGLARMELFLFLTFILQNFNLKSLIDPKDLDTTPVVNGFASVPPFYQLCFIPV
Protocol: (§1) Assays examining mouse and human liver microsomal stability, kinetic aqueous solubility, mouse and human plasma protein binding and stability, and human cytochrome P450 inhibition characteristics of the compounds were run by BioDuro (San Diego, CA), using standard protocols as previously described [37]. hERG inhibition assays were also performed by BioDuro.

[2] = Mouse plasma protein binding; assay type: in vitro ADME
Protocol: as §1

CYP3A4/5 = test: Human cytochrome P450 inhibition, 3A4/5; assay type: in vitro ADME; details: read-out: % inhibition of CYP 3A4/5
Mtb = Mtb growth assay in standard 7H9 medium (OD600); details: for OD600: Fig. 2F
Source text: Bacterial growth was tracked by measuring OD600 every 3 days for 12 days. […] Bacterial growth was tracked by measurement of OD600 every 3 days over 12 days.

[3] = test system: Mtb growth in J774 murine macrophage-like cells; test: microbe, parasite or virus in culture; assay type: cell-based, Mycobacterium tuberculosis; details: for NPI (Mtb growth in J774 cells), average: Fig 1F
J774 cells = test: Intracellular drug accumulation assay in J774 cells (LC-MS); details: 24 hours

CCSc1ncc(CN2CCN(c3nc4ccccc4o3)CC2)cn1 [C6, 2-(4-((2-(ethylthio)pyrimidin-5-yl)methyl)piperazin-1-yl)benzo[d]oxazole]
Accumulation in Mtb-infected J774 cells (Mtb-infected J774 cells): confirmed C6 accumulation
Effect on macrophage phagosomal acidification ([1]; 10 μM, uninfected BMDMs): did not alter
490 nm/450 nm, Average ([1]; time 0 minutes): 4.858
490 nm/450 nm, Average ([1]; time 2 minutes): 4.93
490 nm/450 nm, Average ([1]; time 4 minutes): 4.883
490 nm/450 nm, single replicates (Rep 1-5) ([1]; time 6 minutes): 4.9284 and 4.8623 and 4.895 and 4.851 and 4.867
490 nm/450 nm, Average ([1]; time 6 minutes): 4.881
490 nm/450 nm, single replicates (Rep 1-5) ([1]; time 8 minutes): 4.803 and 4.864 and 4.815 and 4.7957 and 4.8066
490 nm/450 nm, Average ([1]; time 8 minutes): 4.817
490 nm/450 nm, single replicates (Rep 1-5) ([1]; time 10 minutes): 4.783 and 4.786 and 4.81 and 4.727 and 4.764
490 nm/450 nm, Average ([1]; time 10 minutes): 4.774
490 nm/450 nm, single replicates (Rep 1-5) ([1]; time 12 minutes): 4.5604 and 4.6849 and 4.647 and 4.525 and 4.478
490 nm/450 nm, Average ([1]; time 12 minutes): 4.579
490 nm/450 nm, single replicates (Rep 1-5) ([1]; time 14 minutes): 4.45 and 4.492 and 4.497 and 4.303 and 4.234
490 nm/450 nm, Average ([1]; time 14 minutes): 4.395
490 nm/450 nm, single replicates (Rep 1-5) ([1]; time 16 minutes): 4.182 and 4.214 and 4.296 and 4.029 and 3.894
490 nm/450 nm, Average ([1]; time 16 minutes): 4.123
490 nm/450 nm, single replicates (Rep 1-5) ([1]; time 18 minutes): 3.914 and 3.991 and 4.055 and 3.796 and 3.692
490 nm/450 nm, Average ([1]; time 18 minutes): 3.89
490 nm/450 nm, single replicates (Rep 1-5) ([1]; time 20 minutes): 3.661 and 3.707 and 3.803 and 3.557 and 3.477
490 nm/450 nm, Average ([1]; time 20 minutes): 3.641
490 nm/450 nm, single replicates (Rep 1-5) ([1]; time 22 minutes): 3.443 and 3.455 and 3.57 and 3.319 and 3.292
490 nm/450 nm, Average ([1]; time 22 minutes): 3.416
490 nm/450 nm, single replicates (Rep 1-5) ([1]; time 24 minutes): 3.1867 and 3.242 and 3.389 and 3.087 and 3.065
490 nm/450 nm, Average ([1]; time 24 minutes): 3.194
490 nm/450 nm, single replicates (Rep 1-5) ([1]; time 26 minutes): 3.004 and 3.052 and 3.169 and 2.941 and 2.895
490 nm/450 nm, Average ([1]; time 26 minutes): 3.012
490 nm/450 nm, single replicates (Rep 1-5) ([1]; time 28 minutes): 2.852 and 2.904 and 3.023 and 2.803 and 2.7626
490 nm/450 nm, Average ([1]; time 28 minutes): 2.869
490 nm/450 nm, single replicates (Rep 1-5) ([1]; time 30 minutes): 2.719 and 2.762 and 2.859 and 2.651 and 2.679
490 nm/450 nm, Average ([1]; time 30 minutes): 2.734
490 nm/450 nm, single replicates (Rep 1-5) ([1]; time 32 minutes): 2.588 and 2.623 and 2.733 and 2.5744 and 2.581
490 nm/450 nm, Average ([1]; time 32 minutes): 2.62
490 nm/450 nm, single replicates (Rep 1-5) ([1]; time 34 minutes): 2.506 (2×) and 2.556 and 2.644 and 2.5507
490 nm/450 nm, Average ([1]; time 34 minutes): 2.552
490 nm/450 nm, single replicates (Rep 1-5) ([1]; time 36 minutes): 2.483 and 2.493 and 2.575 and 2.447 and 2.499
490 nm/450 nm, Average ([1]; time 36 minutes): 2.499
490 nm/450 nm, single replicates (Rep 1-5) ([1]; time 38 minutes): 2.411 and 2.458 and 2.4978 and 2.4066 and 2.452
490 nm/450 nm, Average ([1]; time 38 minutes): 2.445
490 nm/450 nm, single replicates (Rep 1-5) ([1]; time 40 minutes): 2.369 and 2.38 and 2.4986 and 2.406 and 2.442
490 nm/450 nm, Average ([1]; time 40 minutes): 2.419
490 nm/450 nm, single replicates (Rep 1-5) ([1]; time 42 minutes): 2.364 and 2.3783 and 2.434 and 2.346 and 2.427
490 nm/450 nm, Average ([1]; time 42 minutes): 2.3898
490 nm/450 nm, single replicates (Rep 1-5) ([1]; time 44 minutes): 2.319 and 2.337 and 2.405 and 2.355 and 2.4128
490 nm/450 nm, Average ([1]; time 44 minutes): 2.3655
490 nm/450 nm, Average ([1]; time 46 minutes): 2.351
490 nm/450 nm, Average ([1]; time 48 minutes): 2.35
490 nm/450 nm, Average ([1]; time 50 minutes): 2.351
490 nm/450 nm, Average ([1]; time 52 minutes): 2.342
490 nm/450 nm, Average ([1]; time 54 minutes): 2.342
490 nm/450 nm, Average ([1]; time 56 minutes): 2.334
490 nm/450 nm, Average ([1]; time 58 minutes): 2.337
490 nm/450 nm, Average ([1]; time 60 minutes): 2.3392
490 nm/450 nm, Average ([1]; time 62 minutes): 2.354
490 nm/450 nm, Average ([1]; time 64 minutes): 2.349
490 nm/450 nm, Average ([1]; time 66 minutes): 2.351
490 nm/450 nm, Average ([1]; time 68 minutes): 2.358
490 nm/450 nm, Average ([1]; time 70 minutes): 2.362
490 nm/450 nm, Average ([1]; time 72 minutes): 2.363
490 nm/450 nm, Average ([1]; time 74 minutes): 2.3781
490 nm/450 nm, Average ([1]; time 76 minutes): 2.3813
490 nm/450 nm, Average ([1]; time 78 minutes): 2.38
490 nm/450 nm, Average ([1]; time 80 minutes): 2.392
490 nm/450 nm, Average ([1]; time 82 minutes): 2.387
490 nm/450 nm, Average ([1]; time 84 minutes): 2.389
490 nm/450 nm, Average ([1]; time 86 minutes): 2.399
490 nm/450 nm, Average ([1]; time 88 minutes): 2.414
490 nm/450 nm, Average ([1]; time 90 minutes): 2.411
490 nm/450 nm, Average ([1]; time 92 minutes): 2.4274
490 nm/450 nm, Average ([1]; time 94 minutes): 2.4259
490 nm/450 nm, Average ([1]; time 96 minutes): 2.426
490 nm/450 nm, Average ([1]; time 98 minutes): 2.438
490 nm/450 nm, Average ([1]; time 100 minutes): 2.447
490 nm/450 nm, Average ([1]; time 102 minutes): 2.452
490 nm/450 nm, Average ([1]; time 104 minutes): 2.453
490 nm/450 nm, Average ([1]; time 106 minutes): 2.461
490 nm/450 nm, Average ([1]; time 108 minutes): 2.469
490 nm/450 nm, Average ([1]; time 110 minutes): 2.47
490 nm/450 nm, Average ([1]; time 112 minutes): 2.479
490 nm/450 nm, Average ([1]; time 114 minutes): 2.475
490 nm/450 nm, Average ([1]; time 116 minutes): 2.485
490 nm/450 nm, Average ([1]; time 118 minutes): 2.494
490 nm/450 nm, Average ([1]; time 120 minutes): 2.492
inhibition at 10 µM (CYP2C19): 30.3%
fraction unbound [2]: 0.03
inhibition at 10 µM (CYP3A4/5): < 1%
Effect on Mtb growth in standard 7H9 media (Mtb; 10 μM, OD600 over 12 days): no effect
OD600 (Mtb; day 3, average): 0.1933
OD600 (Mtb; day 3, individual replicates): 0.2 (2×) and 0.18
OD600 (Mtb; day 6, average): 0.3733
OD600 (Mtb; day 6, individual replicates): 0.38 (2×) and 0.36
OD600 (Mtb; day 9, average): 0.4933
OD600 (Mtb; day 9, individual replicates): 0.5 (2×) and 0.48
OD600 (Mtb; day 12, average): 0.6333
OD600 (Mtb; day 12, individual replicates): 0.64 (2×) and 0.62
NPI (Mtb growth in J774 cells), average ([3]; 0.078125 µM, 5 µM rifampicin = 100% inhibition): -7.09%
NPI (Mtb growth in J774 cells), average ([3]; 0.15625 µM): -2.13%
NPI (Mtb growth in J774 cells), average ([3]; 0.3125 µM): -0.93%
NPI (Mtb growth in J774 cells), average ([3]; 0.625 µM): -0.1%
NPI (Mtb growth in J774 cells), average ([3]; 1.25 µM): 17.45%
NPI (Mtb growth in J774 cells), average ([3]; 2.5 µM): 26.3%
NPI (Mtb growth in J774 cells), average ([3]; 5 µM): 38%
NPI (Mtb growth in J774 cells), average ([3]; 10 µM): 40.45%
NPI (Mtb growth in J774 cells), average ([3]; 20 µM): 53.6%
inhibition at 10 µM ([3]; Mycobacterium tuberculosis, J774, 144 h, read-out: J774 tertiary assay % inhibition compared to Rif at 10 µM compound): 40.5 ± 0.6%
inhibition at 20 µM ([3]; Mycobacterium tuberculosis, J774, 144 h, read-out: J774 tertiary assay % inhibition compared to Rif at 20 µM compound): 53.6 ± 2.7%
Intracellular accumulation in J774 cells (J774 cells): dose-dependent accumulation
